Test results as given in patent US20240148723A1, “MYCOBACTERIUM TUBERCULOSIS COMPOSITIONS AND METHODS” (priority 2021, published 2024).
Values after ≈ are worked out from the molar mass of the structure shown.

Test system: M. tuberculosis
Format: cell-based, Mycobacterium tuberculosis
Settings: pH 6.8

Row | Structure (SMILES) | MIC in the media 7H9 [µg/mL] | MIC in the media L-Ala [µg/mL] | MIC in the media SBA [µg/mL] | MIC in the media SLac [µg/mL]
1 | OC(COc1ccc(Cl)cc1)CN1CCN(c2cccc(Cl)c2)CC1 (stereo not shown) [compound 91340] | ≥ 38.13 | 4.77 (≈ 12.5 µM) | 9.53 (≈ 25 µM) | 4.77 (≈ 12.5 µM)
2 | O=C1C(O)=C(c2ccccc2)C(=O)C(O)=C1c1ccccc1 [compound 44175] | ≥ 29.23 | 7.31 (≈ 25 µM) | 3.65 (≈ 12.5 µM) | 3.65 (≈ 12.5 µM)
3 | Cc1ccc(NCCN(C)C)c2c(=O)c3cc(O)ccc3sc12.I [compound 317003] | ≥ 5.70 | 2.85 | 2.85 | 1.46
4 | Cc1ccc(C)c(N2CCN(c3ccncc3N)CC2)c1 [compound 147866] | ≥ 14.12 | 14.12 (≈ 50 µM) | 7.06 (≈ 25 µM) | 1.77 (≈ 6.27 µM)
5 | NC(=O)c1cccnc1 [compound 13128] | ≥ 800 | 400 (≈ 3280 µM) | 400 (≈ 3280 µM) | 400 (≈ 3280 µM)
6 | CC[C@@]1([C@@H]2O[C@@H]([C@H]3O[C@@](O)(CO)[C@H](C)C[C@@H]3C)C[C@@H]2C)CC[C@H]([C@]2(C)CC[C@]3(C[C@H](O)[C@@H](C)[C@@H]([C@@H](C)[C@@H](OC)[C@H](C)C(=O)[O-])O3)O2)O1.[Na+] [compound 343257] | ≥ 4.33 | 4.33 | 4.33 | 8.66
7 | O=c1c(-c2ccc(O)cc2)coc2cc(O)cc(O)c12 [compound 36586] | ≥ 108.10 | 13.51 (≈ 50 µM) | 13.51 (≈ 50 µM) | 1.69 (≈ 6.25 µM)
8 | NC(=O)c1cccc(N)c1 [compound 36962] | ≥ 54.48 | 13.62 (≈ 100 µM) | 13.62 (≈ 100 µM) | 13.62 (≈ 100 µM)
9 | O=C(c1ccc(F)c(F)c1Nc1ccc(I)cc1F)N1CC(O)(C2CCCCN2)C1 (stereo not shown) [compound 768068] | ≥ 26.57 | 13.28 (≈ 25 µM) | 3.32 (≈ 6.25 µM) | 3.32 (≈ 6.25 µM)
10 | O=[N+]([O-])/C=C/c1cc2ccccc2[nH]1 [compound 150982] | ≥ 18.82 | 9.41 (≈ 50 µM) | 4.70 (≈ 25 µM) | 2.35 (≈ 12.5 µM)
11 | Sc1nc2cc(-c3ccccc3)ccc2o1 [compound 93817] | ≥ 22.73 | 1.42 (≈ 6.25 µM) | 0.73 (≈ 3.21 µM) | 0.73 (≈ 3.21 µM)
12 | CCCOC(=O)c1ccc([N+](=O)[O-])cc1 [compound 406847] | ≥ 83.68 | 5.23 (≈ 25 µM) | 10.46 (≈ 50 µM) | 5.23 (≈ 25 µM)
13 | CCCCCc1cc(O)cc2c1Oc1cc(O)cc(C(=O)CCCC)c1C(=O)O2 [compound 31867] | ≥ 39.84 | 4.98 (≈ 12.5 µM) | 2.49 (≈ 6.25 µM) | 0.64 (≈ 1.61 µM)
14 | COC12C(COC(N)=O)C3=C(C(=O)C(C)=C(N)C3=O)N1CC1C2N1C (stereo not shown) [compound 56410] | ≥ 0.28 | 0.28 (≈ 0.804 µM) | 0.28 (≈ 0.804 µM) | 0.56 (≈ 1.61 µM)
15 | O=Nc1ccc(O)c2ncccc12 [compound 3852] | ≥ 4.36 | 2.18 (≈ 12.5 µM) | 2.18 (≈ 12.5 µM) | 1.09 (≈ 6.26 µM)
16 | CC[C@@H](O)C[C@H]1CCC[C@@]2(C[C@@H]3OC(=O)/C=C/[C@@](C)(O)[C@@H](O)[C@H](C)[C@@H](O)[C@H](OC4CCC(N(C)C)C(C)O4)[C@@H](O)[C@](C)(O)CCCCC/C=C/[C@@H]4CC(C)(C)O[C@@]4(O)C[C@H](O2)[C@H]3C)O1 (stereo partly shown) [compound 76627] | ≥ 22.81 | 5.7 (≈ 6.25 µM) | 11.4 (≈ 12.5 µM) | 5.7 (≈ 6.25 µM)
17 | CN(C)CCCN1c2ccc3ccccc3c2Sc2cccc(Cl)c21 [compound 24113] | ≥ 9.22 | 2.31 (≈ 6.26 µM) | 2.31 (≈ 6.26 µM) | 1.18 (≈ 3.2 µM)
18 | Cc1cc(C(C#N)c2ccc(Cl)cc2)c(Cl)cc1NC(=O)c1cc(I)cc(I)c1O (stereo not shown) [compound 335306] | ≥ 66.31 | 4.14 (≈ 6.24 µM) | 4.14 (≈ 6.24 µM) | 4.14 (≈ 6.24 µM)
19 | NC1(N2SC(S)=C3CCCC=C32)CCCCC1 [compound 327444] | ≥ 26.84 | 6.71 (≈ 25 µM) | 13.42 (≈ 50 µM) | 3.36 (≈ 12.5 µM)
20 | COC(=O)c1ccc(N)cc1O [compound 30263] | ≥ 4.18 | 1.05 (≈ 6.28 µM) | 4.18 (≈ 25 µM) | 1.05 (≈ 6.28 µM)

Row | Structure (SMILES) | MIC in the media 7H9 [µg/mL] | MIC in the media L-Ala [µg/mL] | MIC in the media SBA [µg/mL] | MIC in the media SLac [µg/mL]
21 | CCN(CC)CCOc1ccc(C(=C(Cl)c2ccccc2)c2ccccc2)cc1.O=C(O)CC(O)(CC(=O)O)C(=O)O (mixture of isomers) [compound 35770] | ≥ 14.95 | 1.91 | 1.91 | 0.96
22 | Cc1c(Cl)ccc2c(C(=O)O)cc(-c3ccccc3)nc12 [compound 40306] | ≥ 29.77 | 7.44 (≈ 25 µM) | 7.44 (≈ 25 µM) | 3.72 (≈ 12.5 µM)
23 | CN1CCc2cc3c(c4c2C1Cc1ccccc1-4)OCO3.Cl (stereo not shown) [compound 785164] | ≥ 13.97 | 6.98 | 3.49 | 1.75
24 | Oc1ccc(Cc2ccc(Cl)cc2)c(O)c1 [compound 11150] | ≥ 23.47 | 5.87 (≈ 25 µM) | 2.93 (≈ 12.5 µM) | 1.47 (≈ 6.26 µM)
25 | Oc1ccc(Cc2ccccc2Cl)c(O)c1 [compound 11149] | ≥ 23.47 | 5.87 (≈ 25 µM) | 2.93 (≈ 12.5 µM) | 1.47 (≈ 6.26 µM)
26 | CCOC(=O)c1cccc([N+](=O)[O-])c1 [compound 32740] | ≥ 78.08 | 2.44 (≈ 12.5 µM) | 4.88 (≈ 25 µM) | 2.44 (≈ 12.5 µM)
27 | CS(=O)(=O)O.OC(c1cc(C(F)(F)F)nc2c(Cl)cc(Cl)cc12)C1CCCCN1 (stereo not shown) [compound 322661] | ≥ 11.88 | 2.97 | 1.52 | 2.97
28 | c1ccc2c(c1)Sc1ccccc1N2CC1CN2CCC1CC2 (stereo not shown) [compound 303612] | ≥ 16.13 | 8.06 (≈ 25 µM) | 8.06 (≈ 25 µM) | 4.03 (≈ 12.5 µM)
29 | C1C2CC3C1C3/C2=N\N=C1/C2CC3C(C2)C13 [compound 122987] | ≥ 88.52 | 1.38 (≈ 6.5 µM) | 11.06 (≈ 52.1 µM) | 5.53 (≈ 26 µM)
30 | COC(=O)c1cccc([N+](=O)[O-])c1 [compound 1327] | ≥ 72.48 | 9.06 (≈ 50 µM) | 4.53 (≈ 25 µM) | 2.27 (≈ 12.5 µM)
31 | O=[N+]([O-])c1oc2ccc3ccccc3c2c1CCO [compound 373981] | ≥ 0.82 | 0.82 (≈ 3.19 µM) | 0.82 (≈ 3.19 µM) | 0.82 (≈ 3.19 µM)
32 | c1ccc(Sc2ncnc3ccccc23)cc1 [compound 51331] | ≥ 23.83 | 11.92 (≈ 50 µM) | 11.92 (≈ 50 µM) | 2.98 (≈ 12.5 µM)
33 | CCOc1ccc(N=Nc2ccc(N)cc2N)cc1 [compound 190374] | ≥ 6.41 | 3.20 (≈ 12.5 µM) | 6.41 (≈ 25 µM) | 3.20 (≈ 12.5 µM)
34 | COc1ccc2nc3cc(Cl)ccc3c(Nc3cc(C(C)C)c(O)cc3C)c2c1 [compound 13051] | ≥ 20.35 | 2.54 (≈ 6.24 µM) | 2.54 (≈ 6.24 µM) | 1.30 (≈ 3.19 µM)
35 | N#CC(c1ccccc1)C(CC(=NO)c1ccccc1)c1ccccc1 (mixture of isomers) [compound 186200] | ≥ 136.16 | 17.02 | 34.04 | 2.13
36 | CCCCc1oc2ccccc2c1C(=O)c1cc(I)c(OCCN(CC)CC)c(I)c1.Cl [compound 85442] | ≥ 8.52 | 4.26 | 2.18 | 1.09
37 | N=C(N)c1ccc(OCCCCCOc2ccc(C(=N)N)cc2)cc1 [compound 9921] | ≥ 8.51 | 2.13 (≈ 6.26 µM) | 4.26 (≈ 12.5 µM) | 1.09 (≈ 3.2 µM)
38 | OC(c1cc(-c2ccc(C(F)(F)F)cc2)nc(C(F)(F)F)c1)C1CCCCN1 (stereo not shown) [compound 305798] | ≥ 10.11 | 1.25 (≈ 3.09 µM) | 2.53 (≈ 6.26 µM) | 2.53 (≈ 6.26 µM)
39 | CCC(C)(C)c1ccc(Oc2cccc(C(=O)O)c2)cc1 [compound 7962] | ≥ 28.43 | 3.55 (≈ 12.5 µM) | 3.55 (≈ 12.5 µM) | 0.45 (≈ 1.58 µM)
40 | COc1ccc(C(=O)c2ccccc2O)c(O)c1 [compound 56769] | ≥ 97.70 | 24.42 (≈ 100 µM) | 24.42 (≈ 100 µM) | 0.76 (≈ 3.11 µM)
